≈ marks a conversion by molar mass, not a printed value. Calls of active or inactive are those of the source. No cut-off for these calls is given here.
Assays:
Staphylococcus aureus [1] = assay: Inhibition of biofilm in Staphylococcus aureus ATCC 29213 at 2 ug/ml measured after 12 hrs by crystal violet staining based analysis; type: functional, organism-based; conditions: dose 2.0 µg/ml
Klebsiella pneumoniae = assay: Antibacterial activity against Klebsiella pneumoniae BAA 1705 assessed as reduction in bacterial growth measured after 18 to 24 hrs by broth microdilution method; type: functional; conditions: time 18-24 hrs
Pseudomonas aeruginosa = assay: Antibacterial activity against Pseudomonas aeruginosa ATCC 27853 assessed as reduction in bacterial growth measured after 18 to 24 hrs by broth microdilution method; type: functional; conditions: time 18-24 hrs
Escherichia coli = assay: Antibacterial activity against Escherichia coli ATCC 25922 assessed as reduction in bacterial growth measured after 18 to 24 hrs by broth microdilution method; type: functional; conditions: time 18-24 hrs
Staphylococcus aureus [2] = assay: Antibacterial activity against methicillin-resistant Staphylococcus aureus NRS 186 assessed as reduction in bacterial growth measured after 18 to 24 hrs by broth microdilution method; type: functional; conditions: time 18-24 hrs
Staphylococcus aureus [3] = assay: Antibacterial activity against methicillin-resistant Staphylococcus aureus NRS 193 assessed as reduction in bacterial growth measured after 18 to 24 hrs by broth microdilution method; type: functional; conditions: time 18-24 hrs
Staphylococcus aureus [4] = assay: Antibacterial activity against methicillin-sensitive Staphylococcus aureus ATCC 29213 assessed as reduction in bacterial growth measured after 18 to 24 hrs by broth microdilution method; type: functional; conditions: time 18-24 hrs
Cell membrane [5] = assay: Disruption of cell membrane in Staphylococcus aureus ATCC 29213 assessed as increase in red fluorescence at 5 to 10 times MIC measured after 4 hrs by DAPI and PI staining based fluorescence microscopic analysis
HEK293 [6] = assay: Cytotoxicity against HEK293 cells assessed as cell viability at 1 times MIC measured after 24 hrs by Calcein-AM/PI staining based fluorescence microscopy analysis; type: toxicity; conditions: human, hek293, 24 h
Enterococcus faecalis = assay: Antibacterial activity against Enterococcus faecalis ATCC 35550 assessed as reduction in bacterial growth measured after 18 to 24 hrs by broth microdilution method; type: functional; conditions: time 18-24 hrs
Staphylococcus aureus [7] = assay: Induction of morphological changes in Staphylococcus aureus ATCC 29213 assessed as cell shrinkage by measuring cells diameter at 10 times MIC measured after 4 hrs by atomic force microscopy based analysis (reference value: 1.017 micrometer); type: functional
Staphylococcus aureus [8] = assay: Induction of morphological changes in Staphylococcus aureus ATCC 29213 assessed as leakage of subcellular components at 2 to 10 times MIC measured after 4 hrs by Scanning electron microscopy based analysis; type: functional, organism-based
Staphylococcus aureus [9] = assay: Induction of morphological changes in Staphylococcus aureus ATCC 29213 assessed as appearance of cell surface fold at 2 to 10 times MIC measured after 4 hrs by Scanning electron microscopy based analysis; type: functional, organism-based
Staphylococcus aureus [10] = assay: Synergistic antibacterial activity against Staphylococcus aureus ATCC 29213 assessed as fractional inhibitory concentration index in presence of vancomycin by checkerboard assay; type: functional
Staphylococcus aureus [11] = assay: Antibacterial activity against vacomycin-resistant Staphylococcus aureus VRS 1 assessed as reduction in bacterial growth measured after 18 to 24 hrs by broth microdilution method; type: functional; conditions: time 18-24 hrs
[12] = Hemolytic activity in human Red blood cell at 32 ug/ml measured after 1 hrs by spectrophotometric analysis relative to control; type: toxicity, cell-based, Erythrocyte; conditions: red blood cells, at 32 µg/mL, read-out: Activity
[13] = Solubility of the compound in distilled water; type: physicochemical; conditions: buffer
Staphylococcus aureus [14] = assay: Antibacterial activity against vacomycin-resistant Staphylococcus aureus VRS 4 assessed as reduction in bacterial growth measured after 18 to 24 hrs by broth microdilution method; type: functional; conditions: time 18-24 hrs
Staphylococcus aureus [15] = assay: Antibacterial activity against methicillin-resistant Staphylococcus aureus NRS 198 assessed as reduction in bacterial growth measured after 18 to 24 hrs by broth microdilution method; type: functional; conditions: time 18-24 hrs
[16] = Solubility of the compound in DMSO/DMF; type: physicochemical
[17] = biological target: T1, UDP-N-acetylenolpyruvoylglucosamine reductase (Staphylococcus aureus, UniProt P61431); assay: Binding affinity to Staphylococcus aureus MurB assessed as inhibition constant
T1 sequence (P61431 whole entry): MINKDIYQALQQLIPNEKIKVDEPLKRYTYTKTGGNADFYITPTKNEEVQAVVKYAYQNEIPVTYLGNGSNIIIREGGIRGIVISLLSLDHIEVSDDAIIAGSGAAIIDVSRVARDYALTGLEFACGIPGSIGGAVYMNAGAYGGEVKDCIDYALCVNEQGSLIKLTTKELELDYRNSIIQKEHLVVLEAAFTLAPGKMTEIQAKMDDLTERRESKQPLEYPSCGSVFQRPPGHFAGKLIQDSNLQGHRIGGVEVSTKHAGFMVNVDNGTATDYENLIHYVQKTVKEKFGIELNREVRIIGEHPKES

Staphylococcus aureus [18] = assay: Antibacterial activity against methicillin-resistant Staphylococcus aureus NRS 129 assessed as reduction in bacterial growth measured after 18 to 24 hrs by broth microdilution method; type: functional; conditions: time 18-24 hrs
Staphylococcus aureus [19] = assay: Antibacterial activity against methicillin-resistant Staphylococcus aureus NRS 194 assessed as reduction in bacterial growth measured after 18 to 24 hrs by broth microdilution method; type: functional; conditions: time 18-24 hrs
Bacillus subtilis = assay: Antibacterial activity against Bacillus subtilis IITKSM1 assessed as reduction in bacterial growth measured after 18 to 24 hrs by broth microdilution method; type: functional; conditions: time 18-24 hrs
Staphylococcus aureus [20] = assay: Antibacterial activity against methicillin-resistant Staphylococcus aureus NRS 191 assessed as reduction in bacterial growth measured after 18 to 24 hrs by broth microdilution method; type: functional; conditions: time 18-24 hrs
Staphylococcus aureus [21] = assay: Antibacterial activity against Staphylococcus aureus ATCC 29213 measured after 20 passages; type: functional, organism-based
Staphylococcus aureus [22] = assay: Inhibition of biofilm in Staphylococcus aureus ATCC 29213 at 1 times MIC measured after 12 hrs by crystal violet staining based analysis relative to control; type: functional
Staphylococcus aureus [23] = assay: Induction of morphological changes in Staphylococcus aureus ATCC 29213 assessed as accumulation of cellular debris at 2 to 10 times MIC measured after 4 hrs by Scanning electron microscopy based analysis; type: functional, organism-based
HEK293 [24] = assay: Cytotoxicity against HEK293 cells assessed as cell viability measured after 72 hrs by MTT assay; type: toxicity, cell-based; conditions: human, hek293, 72 h
Staphylococcus aureus [25] = assay: Antibacterial activity against vacomycin-resistant Staphylococcus aureus VRS 12 assessed as reduction in bacterial growth measured after 18 to 24 hrs by broth microdilution method; type: functional; conditions: time 18-24 hrs
Acinetobacter baumannii = assay: Antibacterial activity against Acinetobacter baumannii BAA 1605 assessed as reduction in bacterial growth measured after 18 to 24 hrs by broth microdilution method; type: functional; conditions: time 18-24 hrs
Staphylococcus aureus [26] = assay: Induction of morphological changes in Staphylococcus aureus ATCC 29213 assessed as cell shrinkage at 10 times MIC measured after 4 hrs by atomic force microscopy based analysis (reference value: 60.170 nanometer); type: functional
Cell membrane [27] = assay: Disruption of cell membrane in Staphylococcus aureus ATCC 29213 assessed as increase in PI uptake at 10 times MIC measured after 8 mins by fluorescence based microplate reader analysis
Staphylococcus aureus [28] = assay: Antibacterial activity against Staphylococcus aureus ATCC 29213 assessed as reduction in bacterial growth measured after 18 to 24 hrs by broth microdilution method; type: functional; conditions: time 18-24 hrs
[29] = Binding affinity to Staphylococcus aureus MurZ assessed as inhibition constant
Staphylococcus aureus [30] = assay: Induction of morphological changes in Staphylococcus aureus ATCC 29213 assessed as cell shrinkage at 2 to 10 times MIC measured after 4 hrs by Scanning electron microscopy based analysis; type: functional, organism-based
[31] = Binding affinity to Staphylococcus aureus MurA assessed as inhibition constant
Staphylococcus aureus [32] = assay: Induction of morphological changes in Staphylococcus aureus ATCC 29213 assessed as cell deformation at 2 to 10 times MIC measured after 4 hrs by Scanning electron microscopy based analysis; type: functional, organism-based
Staphylococcus aureus [33] = assay: Inhibition of biofilm in Staphylococcus aureus ATCC 29213 at 2 times MIC measured after 12 hrs by crystal violet staining based analysis relative to control; type: functional
Staphylococcus aureus [34] = assay: Inhibition of biofilm in Staphylococcus aureus ATCC 29213 at 0.5 times MIC measured after 12 hrs by crystal violet staining based analysis relative to control; type: functional
Staphylococcus aureus [35] = assay: Antibacterial activity against methicillin-resistant Staphylococcus aureus NRS 119 assessed as reduction in bacterial growth measured after 18 to 24 hrs by broth microdilution method; type: functional; conditions: time 18-24 hrs
Staphylococcus aureus [36] = assay: Induction of morphological changes in Staphylococcus aureus ATCC 29213 assessed as cell shrinkage by measuring cells height at 10 times MIC measured after 4 hrs by atomic force microscopy based analysis (reference value: 170.8 nanometer); type: functional
Staphylococcus aureus [37] = assay: Antibacterial activity against methicillin-resistant Staphylococcus aureus NRS 192 assessed as reduction in bacterial growth measured after 18 to 24 hrs by broth microdilution method; type: functional; conditions: time 18-24 hrs
Staphylococcus aureus [38] = assay: Antibacterial activity against methicillin-resistant Staphylococcus aureus NRS 100 assessed as reduction in bacterial growth measured after 18 to 24 hrs by broth microdilution method; type: functional; conditions: time 18-24 hrs
Staphylococcus aureus [39] = assay: Synergistic antibacterial activity against Staphylococcus aureus ATCC 29213 assessed as fractional inhibitory concentration index in presence of levofloxacin by checkerboard assay; type: functional
Staphylococcus aureus [40] = assay: Drug resistance, ratio of MIC for Staphylococcus aureus ATCC 29213 after 20 passages exposure to MIC for Staphylococcus aureus ATCC 29213 during first exposure; type: functional

CC(C)(C)c1cc(C(c2ccccc2)c2ccccc2)c(NC(=O)c2cccc(C(=O)O)c2)c(C(c2ccccc2)c2ccccc2)c1
inhibition (Staphylococcus aureus [1]): Active
MIC (Klebsiella pneumoniae): > 64 µg/mL
MIC (Pseudomonas aeruginosa): > 64 µg/mL
MIC (Escherichia coli): > 64 µg/mL
MIC (Staphylococcus aureus [2]): 4 µg/mL (≈ 0.00635 mM)
MIC (Staphylococcus aureus [3]): 4 µg/mL (≈ 0.00635 mM)
MIC (Staphylococcus aureus [4]): 4 µg/mL (≈ 0.00635 mM)
Activity (Cell membrane [5]): Active
Activity (HEK293 [6]): Toxic
MIC (Enterococcus faecalis): 1 µg/mL (≈ 0.00159 mM)
Activity (Staphylococcus aureus [7]): 0.68 um
Activity (Staphylococcus aureus [8]): Active
Activity (Staphylococcus aureus [9]): Active
fractional inhibitory concentration index (FICI) (Staphylococcus aureus [10]): 0.258
MIC (Staphylococcus aureus [11]): 4 µg/mL (≈ 0.00635 mM)
hemolysis at 1 h, 32 ug/ml [12]: ~25%
solubility [13]: Insoluble
MIC (Staphylococcus aureus [14]): 4 µg/mL (≈ 0.00635 mM)
MIC (Staphylococcus aureus [15]): 4 µg/mL (≈ 0.00635 mM)
solubility [16]: 660 mg/mL (≈ 1050 mM)
Ki [17]: 2.52 µM
MIC (Staphylococcus aureus [18]): 4 µg/mL (≈ 0.00635 mM)
MIC (Staphylococcus aureus [19]): 4 µg/mL (≈ 0.00635 mM)
MIC (Bacillus subtilis): 1 µg/mL (≈ 0.00159 mM)
MIC (Staphylococcus aureus [20]): 4 µg/mL (≈ 0.00635 mM)
Activity (Staphylococcus aureus [21]): Active
inhibition (INH) (Staphylococcus aureus [22]): 95%
Activity (Staphylococcus aureus [23]): Active
Activity (HEK293 [24]): Toxic
MIC (Staphylococcus aureus [25]): 4 µg/mL (≈ 0.00635 mM)
MIC (Acinetobacter baumannii): > 64 µg/mL
Activity (Staphylococcus aureus [26]): 53.464 nm
Activity (Cell membrane [27]): Active
MIC (Staphylococcus aureus [28]): 2 µg/mL (≈ 0.00318 mM)
Ki [29]: 133 µM
Activity (Staphylococcus aureus [30]): Active
Ki [31]: 117 µM
Activity (Staphylococcus aureus [32]): Active
inhibition (INH) (Staphylococcus aureus [33]): 95%
inhibition (INH) (Staphylococcus aureus [34]): >50%
MIC (Staphylococcus aureus [35]): 4 µg/mL (≈ 0.00635 mM)
Activity (Staphylococcus aureus [36]): 105.1 nm
MIC (Staphylococcus aureus [37]): 4 µg/mL (≈ 0.00635 mM)
MIC (Staphylococcus aureus [38]): 4 µg/mL (≈ 0.00635 mM)
fractional inhibitory concentration index (FICI) (Staphylococcus aureus [39]): 0.75

CC1(C)S[C@@H]2[C@H](NC(=O)[C@H](N)c3ccccc3)C(=O)N2[C@H]1C(=O)O [AMPICILLIN]
Activity (Staphylococcus aureus [26]): 36.075 nm

CCn1cc(C(=O)O)c(=O)c2cc(F)c(N3CCNCC3)cc21 [NORFLOXACIN]
Ratio (Staphylococcus aureus [40]): 64

From ChEMBL document CHEMBL6177993, “De Novo 3-(Phenylcarbamoyl) Benzoate Analogues: Efficacy against Multidrug-Resistant S. aureus and Elucidation of the Biodistribution Profile” (J Med Chem, 2025)
